The test system of test [1] is human hepatocellular carcinoma cell line HepG2. Briefly: WST-8 antiproliferative assay, HepG2. The class given is cell-based. In general terms: Tetrazolium assays rely on reduction of a dye to a coloured formazan, in cell work by metabolically active cells.
Test [2] in a line: Nitric oxide release, Griess colorimetric method. The class given is physicochemical. The following applies: phosphate buffer pH 7.4, N-acetylcysteine. On the procedure: For the indirect determination of NO, the Griess colorimetric approach was utilized, which includes spectrophotometry measurements of the stable decomposition products NO2^− and NO3^−. This method requires that NO3^− is first reduced to NO2^− and then NO2^− is determined by the Griess reaction that includes two steps, the first step is a diazotization reaction in which the NO-derived nitrogen agent, dinitrogen trioxide (N2O3), which is produced by the spontaneous oxidation of NO with sulfanilamide to form the diazonium ion, is used. […] In order to evaluate thiol-induced NO generation from the appropriate compounds, including NO-donating oximes 8a–b, 8d–i, and 10a–c, they were incubated in aqueous phosphate buffer of pH 7.4 in the presence of excess N-acetylcysteine, which serves as a source of thiols that are essential for the release of NO from oximes. The signal intensity of the dye is proportional to the amount of NO released. To quantify the amount of NO released, a standard curve was made by measuring the change in absorbance of various concentrations of standard sodium nitrite solutions treated by the same way. […] At the first hour, the amount of nitric oxide released increased in compounds 8i, 8b, and 8h, while the maximum release of nitric oxide occurring in compounds 8b and 8h was at 2 h. Then, the amount of nitic oxide released declined, which may explain the biological importance of oxime moiety as a source of nitric oxide release in comparison with ketone intermediates 7a–j and 9a–c, as shown in the anticancer activity of oxime derivatives.
The nitrite calibration curve in addition to the absorbance of the tested compounds were measured on Shimadzu UV-160, UV-Visible spectrophotometer (Shimadzu, Tokyo, Japan). The tested compounds were prepared as solutions in DMF and diluted with the buffer system until a concentration of 100 mM. N-Acetyl cysteine solution was prepared in a concentration of 500 mM in methanol. Griess reagent consists of 0.1% w/v NED solution in water and sulfanilamide solution (1% w/v of sulfanilamide in 5% w/v phosphoric acid). Nitrite standard solution (0.1 M sodium nitrite in water) stock solution was prepared, from which a dilute solution of 100 μM nitrite solution was prepared by dilution 1 mL of the stock solution to 1000 mL with phosphate buffer of pH 7.4. From this solution, 4 serials 2-fold dilutions were performed to generate different concentrations of the nitrite solution (100.00, 50.00, 25.00, and 12.50 μM) and these concentrations were used for nitrite calibration curve.
Sulfanilamide and NEDD solutions were kept at 25 °C; […] of sulfanilamide solution was added to each dilution of the prepared standard nitrite solution. The mixture was left at 25 °C for 5–10 min protected from light. To this mixture, […] of the NEDD solution was added and the mixture was again left for 5–10 min at 25 °C protected from light. […] A plot of the average absorbance value for each concentration of the nitrite standard solution as a function of “Y” against nitrite concentration as a function of “X” was constructed to generate a standard nitrite calibration curve at pH 7.4.
The amount of NO released from the tested compounds 8a–b, 8d–I, and 10a–c was measured using the Griess colorimetric method either in phosphate buffer of pH 7.4 in the presence of N-acetyl cysteine, which serves as a source of thiols. The amount of NO released from the tested compounds was measured relative to NO released from standard sodium nitrite solution.
Different solutions of the tested compounds 8a–b, 8d–i, and 10a–c in DMF were diluted using phosphate buffer of pH 7.4 till a final concentration of 100 mM (test solutions). To […] of different test solutions, […] of N-acetyl cysteine solution was added and the obtained solution was kept in an incubator at 37 °C (treated solutions). […]
For orientation: The Griess reaction detects nitrite, a stable product of nitric oxide.

Here are results for two compounds from publication PMC10537604, “Development and Assessment of 1,5–Diarylpyrazole/Oxime Hybrids Targeting EGFR and JNK–2 as Antiproliferative Agents: A Comprehensive Study through Synthesis, Molecular Docking, and Evaluation” (Molecules, 2023).

Where two headings read alike, the source gives them in different places.

What is called inhibition is the relative decrease from the control value, in per cent. A word on the IC50: it is the concentration that gives 50% inhibition. `COc1cc(/C(C)=N/O)ccc1OC(=O)c1cc(-c2ccc(Cl)cc2)n(-c2ccccc2)n1` [Compound 8d, (E)–4–(1–(Hydroxyimino)ethyl)–2–methoxyphenyl 5–(4–chlorophenyl)–1–phenyl–1H–pyrazole–3–carboxylate]: the inhibition at 100 µM in test [1] (HepG2, read-out: Growth Inhibition (GI%) HepG2) is 98%. Moreover, the 50% inhibitory concentration (IC50) in test [1] (HepG2, read-out: IC50 HepG2) was 23.3 µM. In test [2], the “Amount of NO Released (mol/mol) 1 h” value amounted to 0.096 ± 0.036 mol/mol, the “Amount of NO Released (mol/mol) 2 h” value is on record as 0.106 ± 0.040 mol/mol, the “Amount of NO Released (mol/mol) 3 h” value was 0.101 ± 0.038 mol/mol and the “Amount of NO Released (mol/mol) 4 h” value worked out at 0.079 ± 0.030 mol/mol.
Turning to `COc1cc(/C(C)=N/O)ccc1OC(=O)c1cc(-c2ccccc2)n(-c2ccccc2)n1` [Compound 8a, (E)–4–(1–(Hydroxyimino)ethyl)2–methoxyphenyl 1,5–diphenyl–1H–pyrazole–3–carboxylate], the inhibition at 100 µM in test [1] (HepG2, 100 µM, WST-8 assay, read-out: Growth Inhibition (GI%) HepG2) amounted to 0%. Also, in test [2], the “Amount of NO Released (mol/mol) 1 h” value is reported as 0.095 ± 0.036 mol/mol, the “Amount of NO Released (mol/mol) 2 h” value turned out to be 0.121 ± 0.047 mol/mol, the “Amount of NO Released (mol/mol) 3 h” value is 0.108 ± 0.042 mol/mol and the “Amount of NO Released (mol/mol) 4 h” value was determined as 0.056 ± 0.022 mol/mol.
